Entries after “also recorded” stand apart in the source; their conditions may differ.
Key:
[1] = test system: morphine analgesic tolerance, inflammatory pain rat model; experiment: Effect on morphine analgesic tolerance in Carr-induced inflammatory pain rat model; type: in vivo; details: for effect on morphine analgesic tolerance: every 2 h
Method: The Carr-induced inflammatory pain model was built according to a published method (Alessandri-Haber N, et al. Neurosci. Vol 29(19), pp. 6217-6288, 2009) for evaluating an analgesic effect of drugs administered by intraplantar injection. Specifically, 6 μL of 1 wt % Carr solution was injected into the rats between the 2nd and 3rd toes of a left hind paw to induce hyperalgesia, which was manifested as plantar swelling and a declined pain threshold of the rats within 1 hour after the injection. Those rats with a PWT lower than 100 gf were considered to be a desired Carr-induced inflammatory pain model, those rats with the PWT higher than 100 gf was removed.
(1) 24 healthy adult SD rats, weighing 180-220 g, were selected, reinjected with 6 μL of a 1 wt % Carr solution and divided into 4 groups randomly and averagely (i.e., groups A-D). The group A was injected with normal saline; the group B was intradermally injected with 0.1 μg/kg of the short peptide P10581 through the plantar surface of the left hind paw; the group C was intradermally injected with 0.1 μg/kg of the short peptide P10581 and then with 5 mg/kg of morphine 30 min later through the plantar surface of the left hind paw; and the group D was intradermally injected with 0.05 μg/kg of the short peptide P10581, and then with 5 mg/kg of morphine 30 min later through the plantar surface of the left hind paw. 1 h later, the PWT of each group was recorded when the mechanical withdrawal of the left hind paw occurred, and each rat was measured 3-5 times at an interval of 5-10 min.
(2) The drug was injected every 2 h according to the above-mentioned administration dose and time (seven times in total), and the PWT was recorded.
(S1) By means of molecular biological techniques, two cysteine residues (Cys10 and Cys11) in the short peptide P10581 were replaced with alanine (Ala), and the resulting peptide was named P10581-1 (SEQ ID NO: 2).
(S2) Three cysteine residues (Cys10, Cys11 and Cys17) in the short peptide P10581 were replaced with alanine (Ala), and the resulting peptide was named P10581-2 (SEQ ID NO: 3).
The rat was injected with 6 μL of 1 wt % Carr to establish a Carr-induced inflammatory pain model, and the effect of the short peptides P10581, P10581-1 and P10581-2 on the morphine analgesic tolerance was analyzed according to Experimental Example 1. […]

[2] = test system: morphine analgesic tolerance, BCP rat model; experiment: Effect on morphine analgesic tolerance in BCP rat model; type: in vivo
Method: The successfully-established BCP model rats were divided into 4 groups randomly on the 22nd day after modeling, where the group A was injected with 0.2 μg/kg of the short peptide P10581; the group B was injected with 0.2 μg/kg of the short peptide P10581, and injected with 5 mg/kg of the morphine 30 min later; the group C was injected with 0.4 μg/kg of the short peptide P10581; and the group D was injected with 0.4 μg/kg of the short peptide P10581, and injected with 5 mg/kg of the morphine 30 min later. 1 h later, the PWT of the right hind paw of each group was recorded. Each of the rats was measured 3-5 times with an interval of 5-10 min, and the PWTs were averaged to taken as the practical PWT (unit: g). The drug administration was performed twice a day (at 9:30 a.m. and 4:30 p.m.) for consecutive 4 days, and the PWT of each group before and after the administration in the morning was measured.
ΔPWT (%) in FIG. 15D was calculated as follows: ΔPWT(%)=100*{[PWT(post-drug)−PWT(pre-drug)]/ΔPWT(Maxi)}(%): […]

Sequence: WKCNPNDDKCCRPKLKC [P10581]
- effect on morphine analgesic tolerance ([1]; 0.05 μg/kg peptide i.d. 30 min before 5 mg/kg morphine): morphine analgesic tolerance can be eliminated; also recorded: completely eliminate the morphine analgesic tolerance
- duration of eliminating effect on morphine analgesic tolerance ([1]; 0.1 μg/kg and 0.05 μg/kg peptide with 5 mg/kg morphine): over 14 h
- effect on morphine analgesic tolerance ([1]; 0.1 μg/kg peptide i.d. 30 min before 5 mg/kg morphine): morphine analgesic tolerance can be eliminated; also recorded: completely eliminated
- dose at which morphine analgesic tolerance is effectively alleviated ([1]; inflammatory pain, rats): ≥ 0.05 µg/kg
- reversal of morphine analgesic tolerance for BCP ([2]; 0.2 μg/kg peptide S.C. before 5 mg/kg morphine, twice a day, 4 days): 73.9%
- restoration of analgesic effect of morphine on BCP ([2]; 0.4 μg/kg peptide S.C. before 5 mg/kg morphine, repeated): completely restored
- dose at which morphine analgesic tolerance is effectively eliminated ([2]; BCP, rats): ≥ 0.20 µg/kg
